The text below walks through data of the supplement of paper PMC10307832.

Test in all cases: relative viability (nuclei count vs DMSO), 5 days (fraction); higher = more cells survive
Compound in test [1]: O=C(C[C@H]1NCCC[C@@H]1O)Cn1cnc2cc(Br)c(Cl)cc2c1=O (racemic) [Halofuginone] + C[C@]1(O)C[C@@H](c2nc(-c3ccc4ccc(-c5ccccc5)nc4c3)c3c(N)nccn32)C1 [Linsitinib] (partner 1 µM)
Summed up:
(§1)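 Five library-drug doses in √10 steps were combined with a fixed anchor-drug dose, or a single drug was given alone, by pin tool to lung cancer cell lines in 1536-well plates the day after seeding. Nuclei were stained and counted after 5 days. Relative viability is the nuclei count in treated wells over that in vehicle wells, taken as the median of duplicate plates.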

Compound in test [2]: O=C(C[C@H]1NCCC[C@@H]1O)Cn1cnc2cc(Br)c(Cl)cc2c1=O (racemic) [Halofuginone] + CC(=O)c1c(C)c2cnc(Nc3ccc(N4CCNCC4)cn3)nc2n(C2CCCC2)c1=O [Palbociclib] (partner 0.5 µM)
Summed up:
as §1

Compound in the test “Decitabine + Tozasertib”: Nc1ncn([C@H]2C[C@H](O)[C@@H](CO)O2)c(=O)n1 [Decitabine] + Cc1cc(Nc2cc(N3CCN(C)CC3)nc(Sc3ccc(NC(=O)C4CC4)cc3)n2)n[nH]1 [Tozasertib] (partner 0.1 µM)
Summed up:
as §1

Compound in the test “Cediranib + Crizotinib”: COc1cc2c(Oc3ccc4[nH]c(C)cc4c3F)ncnc2cc1OCCCN1CCCC1 [Cediranib] + C[C@@H](Oc1cc(-c2cnn(C3CCNCC3)c2)cnc1N)c1c(Cl)ccc(F)c1Cl [Crizotinib] (partner 1 µM)
In a few lines: as §1

On to UMC-11, for which the relative viability in test [1] (first compound 0.001 µM) was 1.09; in test [1] (first compound 0.003162 µM), 0.99; in test [1] (first compound 0.01 µM), 1.03; in test [1] (first compound 0.03162 µM) it was 0.963; in test [1] (first compound 0.1 µM), 0.752; in test [2] (first compound 0.001 µM) it was 0.359. Besides, the relative viability in test [2] (first compound 0.003162 µM) is 0.306; in test [2] (first compound 0.01 µM) it was 0.322; in test [2] (first compound 0.03162 µM) it was 0.316; in test [2] (first compound 0.1 µM), 0.279; in the test with Decitabine + Tozasertib (first compound 0.04 µM), 0.202; in the test with Decitabine + Tozasertib (first compound 0.1265 µM), 0.186. For the same cell line, the relative viability with Decitabine + Tozasertib (first compound 0.4 µM) was found to be 0.186; with Decitabine + Tozasertib (first compound 1.265 µM), 0.192; with Decitabine + Tozasertib (first compound 4 µM), 0.183; with Cediranib + Crizotinib (first compound 0.04 µM), 0.612; in the test with Cediranib + Crizotinib (first compound 0.1265 µM), 0.573; with Cediranib + Crizotinib (first compound 0.4 µM), 0.512. The values for the relative viability in the test with Cediranib + Crizotinib (first compound 1.265 µM) and in the test with Cediranib + Crizotinib (first compound 4 µM) were 0.656 and 0.427, respectively.
